Data as given in the NIST ThermoML archive (doi:10.1021/je201277d).

Legend:
[1] = refractive index (other wavelength) (dimensionless); wn = mass fraction of the nth substance listed; conditions: 298.15 K, 101.3 kPa, Liquid
[2] = refractive index (other wavelength) (dimensionless); conditions: 298.15 K, 101.3 kPa, Liquid

C1CCCCC1 [cyclohexane] + CO
refractive index, [1]
Conditions	w1 = 0.1	w1 = 0.2004	w1 = 0.2999
Wavelength=670 nm	1.33196	1.34128	1.34987
Wavelength=925 nm	1.32811	1.33737	1.34602

Cc1ccccc1 [toluene]
[2]
Conditions	refractive index
Wavelength=670 nm	1.48998
Wavelength=925 nm	1.48176

C1CCCCC1 [cyclohexane]
[2]
Conditions	refractive index
Wavelength=670 nm	1.42253
Wavelength=925 nm	1.41832

C1CCCCC1 [cyclohexane] + Cc1ccccc1
refractive index, [1]
Conditions	w1 = 0.0996	w1 = 0.2002	w1 = 0.2995	w1 = 0.4003	w1 = 0.5004	w1 = 0.6002	w1 = 0.7	w1 = 0.8005	w1 = 0.9001
Wavelength=670 nm	1.48158	1.47363	1.46616	1.45883	1.45162	1.44527	1.43903	1.43327	1.42768
Wavelength=925 nm	1.47383	1.46618	1.4592	1.45229	1.44539	1.43956	1.43363	1.42825	1.42296

CO [methanol]
[2]
Conditions	refractive index
Wavelength=670 nm	1.32603
Wavelength=925 nm	1.32235

Cc1ccccc1 [toluene] + CO
refractive index, [1]
Conditions	w1 = 0.1001	w1 = 0.1994	w1 = 0.3001	w1 = 0.4	w1 = 0.4996	w1 = 0.6	w1 = 0.6994	w1 = 0.8001	w1 = 0.8994
Wavelength=670 nm	1.34089	1.35612	1.37219	1.38826	1.4056	1.42196	1.43865	1.45699	1.47418
Wavelength=925 nm	1.33686	1.35152	1.36718	1.38279	1.39956	1.41564	1.43182	1.44951	1.46633
